Values quoted from earlier work, collected in patent US10590413B2, “Chiral control” (WAVE LIFE SCIENCES LTD., priority 2012, dated 2020).
Read-outs that look alike come from different tables or passages of the source. [Rp] = phosphorothioate linkage, Rp; [5mC] = 5-methylcytosine

Experiments:
[1] = system: Mouse B Cells; settings: mean and std. dev. of at least 3 experiments, compared to wells with no added ODN, cited from earlier work
[2] = system: Murine IL-6 production and B cell activation; settings: cited from earlier work; for IL-6 (pg/ml) CH12.LX: CH12.LX cells; for SI (stimulation index, [3H] uridine uptake, fold increase from unstimulated control): cells stimulated with 20 μM CpG O-ODN; for SI (stimulation index, [3H] uridine uptake, fold increase from unstimulated control) / SI (stimulation index, [3H] uridine uptake): mean ± SD of triplicates; for SI (stimulation index, [3H] uridine uptake): fold increase from unstimulated control, 20 μM CpG O-ODN; for IgM: unstimulated culture 547 ± 82 ng/ml; for IL-6 (pg/ml) SPLENIC B CELL: splenic B cells
[3] = system: human PBMC; settings: cited from earlier work
[4] = unstimulated control ≤10 pg/ml, US 6,239,116 Table 2
[5] = ODN 12 μg/ml, 4 hr, 10% autologous serum, level above wells with no ODN, ELISA
[6] = ODN 12 μg/ml, 24 hr, 10% autologous serum, level above wells with no ODN, ELISA

3Dg (DNA GAGAACGCTCCAGCACTGAT; chemistry not fully specified) [Oligonucleotide 3Dg]
Stimulation Index, 3H Uridine ([1]; US 6,239,116 Table 1): 6.1 ± 1.5
Stimulation Index, IgM Production ([1]; US 6,239,116 Table 1): 18.6 ± 1.5
Stimulation Index, 3H Uridine [1]: 6.1 ± 1.5

1636 (DNA TCCATGTCGATCCTGATGCT; chemistry not given here) [Oligonucleotide 1636]
IL-6 (pg/ml) CH12.LX [2]: 1181 ± 76 pg/mL
IL-6 (pg/ml) CH12.LX [2, 4]: 1181 ± 76 pg/mL
SI (stimulation index, [3H] uridine uptake, fold increase from unstimulated control) [2]: 5.4 ± 0.4
SI (stimulation index, [3H] uridine uptake) [2]: 5.4 ± 0.4
IgM ([2]; measured by ELISA): 3983 ± 485 ng/mL
IL-6 (pg/ml) SPLENIC B CELL [2]: 947 ± 132 pg/mL
IL-6 (pg/ml) SPLENIC B CELL [2, 4]: 947 ± 132 pg/mL
TNF-α [3, 5]: 250 pg/mL
GM-CSF [3, 6]: 40 pg/mL
IFN-γ [3, 6]: 35 pg/mL
IL-6 [3, 6]: 325 pg/mL
IL-12 [3, 6]: 250 pg/mL
GM-CSF [3]: 40
IFN-γ [3]: 35
IL-6 [3]: 325
IL-12 [3]: 0
TNF-α [3]: 250

4g (DNA AACGTTCT; chemistry not given here) [Oligonucleotide 4g]
Stimulation Index, 3H Uridine ([1]; US 6,239,116 Table 1): 1.4 ± 0.3
Stimulation Index, 3H Uridine [1]: 1.4 ± 0.3

1639 (DNA TCCATAACGTTCCTGATGCT; chemistry not given here) [Oligonucleotide 1639]
IL-6 (pg/ml) CH12.LX [2]: 1827 ± 83 pg/mL
IL-6 (pg/ml) CH12.LX [2, 4]: 1827 ± 83 pg/mL
IgM ([2]; ELISA): 9489 ± 103 ng/mL
SI (stimulation index, [3H] uridine uptake, fold increase from unstimulated control) [2]: 11.5 ± 0.4
SI (stimulation index, [3H] uridine uptake) [2]: 11.5 ± 0.4
IgM ([2]; measured by ELISA): 9439 ± 103 ng/mL
IL-6 (pg/ml) SPLENIC B CELL [2]: 2012 ± 132 pg/mL
IL-6 (pg/ml) SPLENIC B CELL [2, 4]: 2012 ± 132 pg/mL
TNF-α [3, 5]: 220 pg/mL
GM-CSF [3, 6]: 40 pg/mL
IFN-γ [3, 6]: 15.6 pg/mL
IL-6 [3, 6]: 625 pg/mL
IL-12 [3, 6]: 220 pg/mL
GM-CSF [3]: 40
IFN-γ [3]: 15.6
IL-6 [3]: 625
IL-12 [3]: 60
TNF-α [3]: 220

4d (DNA TCTTCGAA; chemistry not fully specified) [Oligonucleotide 4d]
Stimulation Index, 3H Uridine ([1]; US 6,239,116 Table 1): 1.3 ± 0.2
Stimulation Index, 3H Uridine [1]: 1.3 ± 0.2

2c (DNA ATCGACTCTCGAGCGTTCTC; chemistry not fully specified) [Oligonucleotide 2c]
Stimulation Index, 3H Uridine ([1]; US 6,239,116 Table 1): 3.1 ± 0.6
Stimulation Index, IgM Production ([1]; US 6,239,116 Table 1): 7.3 ± 1.4
Stimulation Index, 3H Uridine [1]: 3.1 ± 0.6

3Md (DNA TCCATGACGTTCCTGATGCT; chemistry not given here) [Oligonucleotide 3Md]
Stimulation Index, 3H Uridine ([1]; US 6,239,116 Table 1): 17.2 ± 9.4
Stimulation Index, 3H Uridine [1]: 17.2 ± 9.4

3Me (DNA TCCATGTCGGTCCTGCTGAT; chemistry not given here) [Oligonucleotide 3Me]
Stimulation Index, 3H Uridine ([1]; US 6,239,116 Table 1): 3.6 ± 0.2
Stimulation Index, IgM Production ([1]; US 6,239,116 Table 1): 14.2 ± 5.2
Stimulation Index, 3H Uridine [1]: 3.6 ± 0.2

1615 (DNA TCCATGGCGGTCCTGATGCT; chemistry not given here) [Oligonucleotide 1615]
IL-6 (pg/ml) CH12.LX [2]: 1201 ± 155 pg/mL
IL-6 (pg/ml) CH12.LX [2, 4]: 1201 ± 155 pg/mL
SI (stimulation index, [3H] uridine uptake, fold increase from unstimulated control) [2]: 3.7 ± 0.3
SI (stimulation index, [3H] uridine uptake) [2]: 3.7 ± 0.3
IgM ([2]; measured by ELISA): 3212 ± 617 ng/mL
IL-6 (pg/ml) SPLENIC B CELL [2]: 850 ± 202 pg/mL
IL-6 (pg/ml) SPLENIC B CELL [2, 4]: 850 ± 202 pg/mL
TNF-α [3, 5]: 145 pg/mL
GM-CSF [3, 6]: 45 pg/mL
IFN-γ [3, 6]: 7.8 pg/mL
IL-6 [3, 6]: 600 pg/mL
IL-12 [3, 6]: 145 pg/mL
GM-CSF [3]: 45
IFN-γ [3]: 7.8
IL-6 [3]: 600
IL-12 [3]: 250
TNF-α [3]: 145

1b (DNA GCTAGACGTTAGCGT; Z modified cytosine, further chemistry not given here) [Oligonucleotide 1b]
Stimulation Index, 3H Uridine ([1]; US 6,239,116 Table 1): 1.2 ± 0.1
Stimulation Index, IgM Production ([1]; US 6,239,116 Table 1): 1.8 ± 0.0
Stimulation Index, 3H Uridine [1]: 1.2 ± 0.1

4f (DNA CCAACGTT; chemistry not fully specified) [Oligonucleotide 4f]
Stimulation Index, 3H Uridine ([1]; US 6,239,116 Table 1): 3.9 ± 1.4
Stimulation Index, 3H Uridine [1]: 3.9 ± 1.4

3Df (DNA GAGAACGATGGACCTTCCAT; chemistry not fully specified) [Oligonucleotide 3Df]
Stimulation Index, 3H Uridine ([1]; US 6,239,116 Table 1): 1.6 ± 0.1
Stimulation Index, IgM Production ([1]; US 6,239,116 Table 1): 7.7 ± 0.4
Stimulation Index, 3H Uridine [1]: 1.6 ± 0.1

3D (DNA GAGAACGCTGGACCTTCCAT; chemistry not fully specified) [Oligonucleotide 3D]
Stimulation Index, 3H Uridine ([1]; US 6,239,116 Table 1): 4.9 ± 0.5
Stimulation Index, IgM Production ([1]; US 6,239,116 Table 1): 19.9 ± 3.6
Stimulation Index, 3H Uridine [1]: 4.9 ± 0.5

2d (DNA ATCGACTCTCGAGCGTTCTC; DNA, [5mC] at 18, backbone not given here) [Oligonucleotide 2d]
Stimulation Index, 3H Uridine ([1]; US 6,239,116 Table 1): 7.4 ± 1.4
Stimulation Index, IgM Production ([1]; US 6,239,116 Table 1): 27.7 ± 5.4
Stimulation Index, 3H Uridine [1]: 7.4 ± 1.4

3Ma (DNA TCCATGCTGGTCCTGATGCT; chemistry not fully specified) [Oligonucleotide 3Ma]
Stimulation Index, 3H Uridine ([1]; US 6,239,116 Table 1): 0.9 ± 0.1
Stimulation Index, IgM Production ([1]; US 6,239,116 Table 1): 1.8 ± 0.5
Stimulation Index, 3H Uridine [1]: 0.9 ± 0.1

1637 (DNA TCCATGCCGGTCCTGATGCT; chemistry not given here) [Oligonucleotide 1637]
IL-6 (pg/ml) CH12.LX [2]: 136 ± 27 pg/mL
IL-6 (pg/ml) CH12.LX [2, 4]: 136 ± 27 pg/mL
SI (stimulation index, [3H] uridine uptake, fold increase from unstimulated control) [2]: 1.7 ± 0.2
SI (stimulation index, [3H] uridine uptake) [2]: 1.7 ± 0.2
IgM ([2]; measured by ELISA): 770 ± 72 ng/mL
IL-6 (pg/ml) SPLENIC B CELL [2]: 46 ± 6 pg/mL
IL-6 (pg/ml) SPLENIC B CELL [2, 4]: 46 ± 6 pg/mL
TNF-α [3, 5]: 16 pg/mL
GM-CSF [3, 6]: 15.6 pg/mL
IFN-γ [3, 6]: 7.8 pg/mL
IL-6 [3, 6]: 550 pg/mL
IL-12 [3, 6]: 16 pg/mL
GM-CSF [3]: 15.6
IFN-γ [3]: 7.8
IL-6 [3]: 550
IL-12 [3]: 35
TNF-α [3]: 16

3Db (DNA GAGAACGCTCGACCTTCGAT; chemistry not fully specified) [Oligonucleotide 3Db]
Stimulation Index, 3H Uridine ([1]; US 6,239,116 Table 1): 10.1 ± 2.8
Stimulation Index, IgM Production ([1]; US 6,239,116 Table 1): 25.4 ± 0.8
Stimulation Index, 3H Uridine [1]: 10.1 ± 2.8

1c (DNA GCTAGACGTTAGCGT; chemistry not fully specified) [Oligonucleotide 1c]
Stimulation Index, 3H Uridine ([1]; US 6,239,116 Table 1): 10.3 ± 4.4
Stimulation Index, IgM Production ([1]; US 6,239,116 Table 1): 9.5 ± 1.8
Stimulation Index, 3H Uridine [1]: 10.3 ± 4.4

1707 (DNA TCCATGACGTCCCTGATGCT; chemistry not given here) [Oligonucleotide 1707]
SI (stimulation index, [3H] uridine uptake, fold increase from unstimulated control) [2]: 4.0 ± 0.2
SI (stimulation index, [3H] uridine uptake) [2]: 4.0 ± 0.2
IgM ([2]; measured by ELISA): 3534 ± 217 ng/mL
IL-6 (pg/ml) SPLENIC B CELL [2]: 1147 ± 175 pg/mL
IL-6 (pg/ml) SPLENIC B CELL [2, 4]: 1147 ± 175 pg/mL
TNF-α [3, 5]: 70 pg/mL
GM-CSF [3, 6]: 0 pg/mL
IFN-γ [3, 6]: 17 pg/mL
IL-6 [3, 6]: 300 pg/mL
IL-12 [3, 6]: 70 pg/mL
GM-CSF [3]: 0
IFN-γ [3]: 17
IL-6 [3]: 300
IL-12 [3]: 0
TNF-α [3]: 70

4h (DNA TCAACGTC; chemistry not fully specified) [Oligonucleotide 4h]
Stimulation Index, 3H Uridine ([1]; US 6,239,116 Table 1): 1.2 ± 0.2
Stimulation Index, 3H Uridine [1]: 1.2 ± 0.2

All-(Rp)-d[GsCsCsTsCsAsGsTsCsTsGsCsTsTsCsGsCsAsCsC] (DNA GCCTCAGTCTGCTTCGCACC; DNA, all [Rp], methylation of C not given here) [Oligonucleotide 101]
Stimulation Index, 3H Uridine ([1]; US 6,239,116 Table 1): 2.9 ± 0.2
Stimulation Index, IgM Production ([1]; US 6,239,116 Table 1): 13.6 ± 2.0
Stimulation Index, 3H Uridine [1]: 2.9 ± 0.2

3Mc (DNA TCCATGTCGGTCCTGATGCT; Z modified cytosine, further chemistry not given here) [Oligonucleotide 3Mc]
Stimulation Index, 3H Uridine ([1]; US 6,239,116 Table 1): 5.4 ± 1.5
Stimulation Index, IgM Production ([1]; US 6,239,116 Table 1): 8.5 ± 2.6
Stimulation Index, 3H Uridine [1]: 5.4 ± 1.5

4c (DNA TCATCGAT; chemistry not given here) [Oligonucleotide 4c]
Stimulation Index, 3H Uridine ([1]; US 6,239,116 Table 1): 2.7 ± 1.0
Stimulation Index, 3H Uridine [1]: 2.7 ± 1.0

4e (DNA CAACGTT; chemistry not fully specified) [Oligonucleotide 4e]
Stimulation Index, 3H Uridine ([1]; US 6,239,116 Table 1): 1.3 ± 0.2
Stimulation Index, IgM Production ([1]; US 6,239,116 Table 1): 1.1 ± 0.5
Stimulation Index, 3H Uridine [1]: 1.3 ± 0.2

4b (DNA TCAGCGCT; chemistry not fully specified) [Oligonucleotide 4b]
Stimulation Index, 3H Uridine ([1]; US 6,239,116 Table 1): 4.5 ± 0.2
Stimulation Index, IgM Production ([1]; US 6,239,116 Table 1): 9.6 ± 3.4
Stimulation Index, 3H Uridine [1]: 4.5 ± 0.2

3Dc (DNA GAGCAAGCTGGACCTTCCAT; chemistry not fully specified) [Oligonucleotide 3Dc]
Stimulation Index, 3H Uridine ([1]; US 6,239,116 Table 1): 1.0 ± 0.1
Stimulation Index, IgM Production ([1]; US 6,239,116 Table 1): 1.2 ± 0.5
Stimulation Index, 3H Uridine [1]: 1.0 ± 0.1

1d (DNA GCATGACGTTGAGCT; DNA, backbone not given here; further chemistry not fully specified) [Oligonucleotide 1d]
Stimulation Index, 3H Uridine ([1]; US 6,239,116 Table 1): 13.0 ± 2.3
Stimulation Index, IgM Production ([1]; US 6,239,116 Table 1): 18.3 ± 7.5
Stimulation Index, 3H Uridine [1]: 13.0 ± 2.3
